Experimental findings from US5786349A, “Method for treating chlamydia infectious diseases by rifamycin derivative” (Kaneka Corporation, priority 1995, dated 1998) are described below.

The test system of experiment [1] is Chlamydia pneumoniae TW-183. Put plainly: In vitro test 3: inhibition of inclusion formation in HeLa 229 cells, about 5 times the inoculum of test 2, C. pneumoniae TW-183. The conditions noted are these: TW183, 72 h, read-out: Minimum inhibitory concentration TW-183.
Experiment [2] concerns Chlamydia pneumoniae AR-39. Put plainly: In vitro test 3: inhibition of inclusion formation in HeLa 229 cells, about 5 times the inoculum of test 2, C. pneumoniae AR-39. The conditions noted are these: AR39, 72 h, read-out: Minimum inhibitory concentration AR-39.
Experiment [3] relates to Chlamydia pneumoniae AR-39. Put plainly: Infection-therapy test: mouse pneumonia model. Particulars: 1 mg/kg/day i.p. for 3 days.
In experiment [4] the test system is Chlamydia trachomatis D/UW-3/Cx. Put plainly: In vitro test 1: inhibition of inclusion formation in HeLa 229 cells (Japan Society of Chemotherapy standard method), C. trachomatis D/UW-3/Cx. The conditions noted are these: rifampicin vs compound 4.
Experiment [5] relates to Chlamydia trachomatis F/UW-6/Cx. Put plainly: In vitro test 1: inhibition of inclusion formation in HeLa 229 cells (Japan Society of Chemotherapy standard method), C. trachomatis F/UW-6/Cx. Particulars: rifampicin vs compound 4.

In brackets after ≈: the same amount, converted by molar mass. Several values for one entry are separate records, joined by “and”; a condition that tells them apart may be missing. Equal entries are not always repeated.

For the molecule `COC1C=COC2(C)Oc3c(C)c(O)c4c(=O)c(c5oc6cc(N7CCN(CC8OCCO8)CC7)cc(O)c6nc-5c4c3C2=O)NC(=O)C(C)=CC=CC(C)C(O)C(C)C(O)C(C)C(OC(C)=O)C1C` (centres unmarked), the MIC in experiment [1] is 2.5 ng/mL (≈ 2.57 nM); in experiment [2] it was 0.63 ng/mL (≈ 0.649 nM).

`CC[C@H]1OC(=O)[C@H](C)[C@@H](O[C@H]2C[C@@](C)(OC)[C@@H](O)[C@H](C)O2)[C@H](C)[C@@H](O[C@@H]2O[C@H](C)C[C@H](N(C)C)[C@H]2O)[C@](C)(O)C[C@@H](C)CN(C)[C@H](C)[C@@H](O)[C@]1(C)O` [Azithromycin, reference compound]: the MIC in experiment [1] was 250 ng/mL (≈ 334 nM); in experiment [2] it was 500 ng/mL (≈ 668 nM).

With `COC1C=COC2(C)Oc3c(C)c(O)c4c(=O)c(c5oc6cc(N7CCOCC7)cc(O)c6nc-5c4c3C2=O)NC(=O)C(C)=CC=CC(C)C(O)C(C)C(O)C(C)C(OC(C)=O)C1C` (centres unmarked) [Compound 1], the MIC in experiment [1] was 0.63 ng/mL (≈ 0.711 nM); in experiment [2], 1.25 ng/mL (≈ 1.41 nM).

As for `COC1C=COC2(C)Oc3c(C)c(O)c4c(=O)c(c5oc6cc(N7CCN(C)CC7)cc(O)c6nc-5c4c3C2=O)NC(=O)C(C)=CC=CC(C)C(O)C(C)C(O)C(C)C(OC(C)=O)C1C` (centres unmarked) [Compound 2], the MIC came out at 0.63 ng/mL (≈ 0.701 nM) in experiment [1] and 0.16 ng/mL (≈ 0.178 nM) in experiment [2].

With `CCCN1CCN(c2cc(O)c3nc4c5c6c7c(C)c(O)c5c(=O)c(c-4oc3c2)NC(=O)C(C)=CC=CC(C)C(O)C(C)C(O)C(C)C(OC(C)=O)C(C)C(OC)C=COC(C)(O7)C6=O)CC1` (centres unmarked) [Compound 3], the results for the MIC in experiment [1] and in experiment [2] were 5 ng/mL (≈ 5.39 nM) and 1.25 ng/mL (≈ 1.35 nM), respectively.

Take `COC1C=COC2(C)Oc3c(C)c(O)c4c(=O)c(c5oc6cc(N7CCN(CC(C)C)CC7)cc(O)c6nc-5c4c3C2=O)NC(=O)C(C)=CC=CC(C)C(O)C(C)C(O)C(C)C(OC(C)=O)C1C` (centres unmarked) [Compound 4]: the MIC in experiment [1] and in experiment [2] was 1.25 ng/mL (≈ 1.33 nM) throughout. Moreover, the “Mice from which Chlamydia was reisolated from the lung/tested mice” value is 3/3 in experiment [3] (2 days after infection); “only one mouse in a group of 5 mice and 1/5” in experiment [3] (7 days after infection (3 days after completion of treatment), 1 mg/kg/day); 0/5 in experiment [3] (9 days after infection (5 days after completion of treatment)); 0/5 in experiment [3] (14 days after infection (10 days after completion of treatment)); 0/5 in experiment [3] (19 days after infection (15 days after completion of treatment)). The reisolation of organisms result in experiment [3] (after the 5th day from completion of treatment) was “no reisolation of organisms was observed”. Moreover, the death of mice entry in experiment [3] (treatment group) is “no death of the treatment group of mice was observed”.

For `COC1C=COC2(C)Oc3c(C)c(O)c4c(=O)c(c5oc6cc(N7CCN(CC(C)C)CC7)cc(O)c6nc-5c4c3C2=O)NC(=O)C(C)=CC=CC(C)C(O)C(C)C(O)C(C)C(O)C1C` (centres unmarked) [Compound 5], the MIC was found to be 1.25 ng/mL (≈ 1.39 nM) in experiment [1] and 2.5 ng/mL (≈ 2.78 nM) in experiment [2].

With `CO[C@H]1/C=C/O[C@@]2(C)Oc3c(C)c(O)c4c(O)c(c(/C=N/N5CCN(C)CC5)c(O)c4c3C2=O)NC(=O)/C(C)=C\C=C\[C@H](C)[C@H](O)[C@@H](C)[C@@H](O)[C@@H](C)[C@H](OC(C)=O)[C@@H]1C` [rifampicin], the “MIC as multiple of the concentration for the compound 4” value in experiment [4] and in experiment [5] was “about 30 times” each time.
